Values after ≈ are worked out from the molar mass of the structure shown.
What was measured:
Type in all cases: cell-based
EMRSA-16 = assay: General MIC protocol, Gram positive panel
Procedure: (§1) General Minimum Inhibitory Concentration (MIC) Protocol
(§2) 1. Grow up cultures of bacterial strains to be tested overnight.
(§3) 2. Dilute down overnight cultures to concentration of 1×10^6 bacteria/ml (OD0.01) in Tryptic soy broth (TSB).
(§4) 3. Add 100 μl of TSB media to column 2-column 12 in 96 well plate (keeping column 1 clear).
(§5) 4. Make up compound to a concentration of 64 μg/ml in water (or alternatively to twice the chosen maximum concentration to be tested).
(§6) 5. Add 100 μl of antibiotic solution to the 1st and 2nd columns.
(§7) 6. Using a multichannel pipette take 100 μl from the 2nd column wells and pipette into 3rd column wells and repeat down the 96 well plate (remembering to include controls i.e. uninfected media and media with no antibiotic).
(§8) 7. To each well (except uninfected control row H) add 100 μl of bacterially infected media at a concentration of 1×10^6/ml.
(§9) 8. This dilutes down the concentration of the antibiotic by half (top dose is therefore 32 μg/ml in column 1) and also gives you a starting bacterial concentration of 5×10^5/ml.
(§10) 9. Wrap plate with parafilm to prevent evaporation.
(§11) 10. Leave at desired temperature (37° C. unless specified elsewhere) for 20 hours.
(§12) 11. Next day check plates for growth and measure optical density (i.e. absorbance) at a wavelength of 600 nm (OD600).
(§13) An example of such a plate is shown in FIG. 1 where column A represents wells that receive the top dose 100 μl; column B represents wells that receive the top dose 100 μl+100 μl TSB; and column C represents wells that receive 100 μl TSB. Row H which is marked by a box labelled D represents a blank where the cells receive no bacteria.

[1] = system: E. faecalis VRE NCTC 12201; assay: General MIC protocol, Gram positive panel
Procedure: as §1, §2, §3, §4, §5, §6, §7, §8, §9, §10, §11, §12, §13

E. faecalis VSE NCTC 775 = assay: General MIC protocol, Gram positive panel; settings: Enterococcus faecalis, NCTC775; VSE 775
Procedure: as §1, §2, §3, §4, §5, §6, §7, §8, §9, §10, §11, §12, §13

[2] = system: methicillin sensitive S. aureus ATTC 9144 (NCTC 6571); assay: General MIC protocol, Gram positive panel; settings: Staphylococcus aureus, MSSA / NCTC 6571; MSSA 9144
Procedure: as §1, §2, §3, §4, §5, §6, §7, §8, §9, §10, §11, §12, §13

EMRSA-15 = assay: General MIC protocol, Gram positive panel
Procedure: as §1, §2, §3, §4, §5, §6, §7, §8, §9, §10, §11, §12, §13

[3] = system: E. faecium VRE NCTC 12204; assay: General MIC protocol, Gram positive panel
Procedure: as §1, §2, §3, §4, §5, §6, §7, §8, §9, §10, §11, §12, §13

K. pneumonia NCTC 13368 = assay: General MIC protocol, Gram negative; settings: Klebsiella pneumoniae, NCTC13368
Procedure: as §1, §2, §3, §4, §5, §6, §7, §8, §9, §10, §11, §12, §13

K. pneumonia M6 = assay: General MIC protocol, Gram negative; settings: Klebsiella pneumoniae; KP-M6
Procedure: as §1, §2, §3, §4, §5, §6, §7, §8, §9, §10, §11, §12, §13

P. aeruginosa NCTC 13437 = assay: General MIC protocol, Gram negative; settings: Pseudomonas aeruginosa, NCTC13437
Procedure: as §1, §2, §3, §4, §5, §6, §7, §8, §9, §10, §11, §12, §13

A. baumannii AYE = assay: General MIC protocol, Gram negative; settings: Acinetobacter baumannii
Procedure: as §1, §2, §3, §4, §5, §6, §7, §8, §9, §10, §11, §12, §13

A. baumannii NCTC 17978 = assay: General MIC protocol, Gram negative; settings: Acinetobacter baumannii, NCTC17978
Procedure: as §1, §2, §3, §4, §5, §6, §7, §8, §9, §10, §11, §12, §13

P. aeruginosa PA01 = assay: General MIC protocol, Gram negative; settings: Pseudomonas aeruginosa, PA01, PA01
Procedure: as §1, §2, §3, §4, §5, §6, §7, §8, §9, §10, §11, §12, §13

[4] = system: HeLa (Cervical cancer cell line); assay: MTT cytotoxicity assay; settings: Homo sapiens, MTT, 24 h continuous exposure, read-out: IC50 HeLa (Cervical cancer cell line)
Procedure: (§14) Two immortalised human cell lines, HeLa and WI38 were used for cytotoxicity screening of the compounds. HeLa is a human cervical cancer cell line and WI38 is a normal healthy cell line. The cell lines were obtained from the American Type Culture Collection. The cell-lines were maintained in monolayer culture in 75 cm2 flasks (TPP, Switzerland) under a humidified 5% CO2 atmosphere at 37° C. The HeLa cell line was maintained in Dulbecco's Modified Eagles Media (DMEM; Invitrogen) supplemented with foetal bovine serum (10% v/v; Invitrogen), L-glutamine (2 mM; Invitrogen), non-essential amino acids (1×; Invitrogen) and Penicillin-Streptomycin (1% v/v, Invitrogen). For WI38, Eagle's Minimum Essential Medium, and Penicillin-Streptomycin (1% v/v, Invitrogen) and foetal bovine serum (10%, nvitrogen) was used. For passaging, cells were washed with phosphate buffered saline [PBS] (GIBCO 14040, Invitrogen, UK), incubated with trypsine (GIBCO 25300, Invitrogen, UK), and re-seeded into fresh medium. For seeding, cells were counted using a Neubauer haemocytometer (Assistant, Germany) by microscopy (Nikon, USA) on a non-adherent suspension of cells that were washed in PBS, trypsinised, centrifuged at 8° C. at 8000 rpm for 5 min and re-suspended in fresh medium.
(§15) The cells were grown in normal cell culture conditions at 37° C. under a 5% CO2 humidified atmosphere using appropriate medium. The cell count was adjusted to 10^5 cells/ml/ and 20,000 cells were added per well. The cells were incubated for 24 hours and 1 μl of the appropriate inhibitor concentrations were to the wells in triplicates. After 24 h of continuous exposure to each compound, the cytotoxicity was determined using the MIT (3-(4,5-Dimethylthiazol-2-yl)-2,5-diphenyltetrazolium bromide) (Lancaster Synthesis Ltd, UK) colorimetric assay. Absorbance was quantified by spectrophotometry at λ=570 nm (Envision Plate Reader, PerkinElmer, USA). IC50 values were calculated by a dose-response analysis using the Prism Graphpad Prism® software. The cytotoxicity results are shown below in Table 12.

WI38 (Healthy cell line) = assay: MTT cytotoxicity assay; settings: Homo sapiens, WI-38; MTT; 24 h continuous exposure; highest concentration tested 20 μM; read-out: IC50 WI38 (Healthy cell line)
Procedure: as §14, §15

| SMILES | MIC (EMRSA-16) [µg/mL] | MIC [1] [µg/mL] | MIC (E. faecalis VSE NCTC 775) [µg/mL] | MIC [2] [µg/mL] | MIC (EMRSA-15) [µg/mL] | MIC [3] [µg/mL] | MIC (K. pneumonia NCTC 13368) [µg/mL] | MIC (K. pneumonia M6) [µg/mL] | MIC (P. aeruginosa NCTC 13437) [µg/mL] | MIC (A. baumannii AYE) [µg/mL] | MIC (A. baumannii NCTC 17978) [µg/mL] | MIC (P. aeruginosa PA01) [µg/mL] | IC50 [4] [µM] | IC50 (WI38 (Healthy cell line)) [µM] |
| --- | --- | --- | --- | --- | --- | --- | --- | --- | --- | --- | --- | --- | --- | --- |
| CCN(CC)C(=O)c1cc2cc(NC(=O)c3cc(NC(=O)CCCOc4cc5c(cc4OC)C(=O)N4CCC[C@H]4C=N5)cn3C)ccc2s1 [PP-B28] | 4 (≈ 5.84 µM) | 0.5 (≈ 0.73 µM) | 1 (≈ 1.46 µM) | 0.5 (≈ 0.73 µM) | 1 (≈ 1.46 µM) | 1 (≈ 1.46 µM) | 64 (≈ 93.5 µM) | 8 (≈ 11.7 µM) | 32 (≈ 46.7 µM) | 4 (≈ 5.84 µM) | 4 (≈ 5.84 µM) | 128 (≈ 187 µM) | > 20 | > 20 |
| COc1cc2c(cc1OCCCC(=O)Nc1cc(C(=O)Nc3ccc4oc(C(=O)N(C)C)cc4c3)n(C)c1)N=C[C@@H]1CCCN1C2=O [PP-A159, (S)—N-(2-(dimethylcarbamoyl)benzofuran-5-yl)-4-(4-((7-methoxy-5-oxo-2,3,5,11a-tetrahydro-1H-benzo[e]pyrrolo[1,2-a][1,4]-diazepin-8-yl)oxy)butanamido)-1-methyl-1H-pyrrole-2-carboxamide] | < 0.125 | 0.5 (≈ 0.78 µM) | < 0.125 | < 0.125 | < 0.125 | < 0.125 | 16 (≈ 25 µM) | 0.5 (≈ 0.78 µM) | 32 to 64 (≈ 49.9 to 99.9 µM) | 4 (≈ 6.24 µM) | 4 (≈ 6.24 µM) | 128 (≈ 200 µM) | 18.5 | > 20 |
| COC(=O)c1cc(NC(=O)c2cc3cc(NC(=O)c4cc(NC(=O)CCCOc5cc6c(cc5OC)C(=O)N5CCC[C@H]5C=N6)cn4C)ccc3s2)cn1C [PP-B17, reference compound] | 0.25 (≈ 0.326 µM) | < 0.125 | < 0.125 | < 0.125 | < 0.125 | < 0.125 | 128 (≈ 167 µM) | 128 (≈ 167 µM) | 64 (≈ 83.6 µM) | 32 (≈ 41.8 µM) | 8 (≈ 10.4 µM) | 128 (≈ 167 µM) |  |  |
| COc1cc2c(cc1OCCCC(=O)Nc1cc(C(=O)Nc3ccc4sc(C(=O)N5CCCCC5)cc4c3)n(C)c1)N=C[C@@H]1CCCN1C2=O [PP-B22, (S)-4-(4-((7-methoxy-5-oxo-2,3,5,11a-tetrahydro-1H-benzo-[e]pyrrolo[1,2-a][1,4]diazepin-8-yl)oxy)butanamido)-1-methyl-N-(2-(piperidine-1-carbonyl)benzo[b]thiophen-5-yl)-1H-pyrrole-2-carboxamide] | 1 (≈ 1.44 µM) | < 0.125 | 0.25 (≈ 0.359 µM) | < 0.125 | 0.5 (≈ 0.718 µM) | < 0.125 | 128 (≈ 184 µM) | 128 (≈ 184 µM) | 64 (≈ 91.8 µM) | 8 (≈ 11.5 µM) | 8 (≈ 11.5 µM) | 128 (≈ 184 µM) | > 20 | > 20 |
| COc1cc2c(cc1OCCCC(=O)Nc1cc(C(=O)Nc3ccc4sc(C(=O)N5CCSCC5)cc4c3)n(C)c1)N=C[C@@H]1CCCN1C2=O [PP-B15, (S)-4-(4-((7-methoxy-5-oxo-2,3,5,11a-tetrahydro-1H-benzo-[e]pyrrolo[1,2-a][1,4]diazepin-8-yl)oxy)butanamido)-1-methyl-N-(2-(thiomorpholine-4-carbonyl)benzo[b]thiophen-5-yl)-1H-pyrrole-2-carboxamide] | < 0.125 | < 0.125 | < 0.125 | < 0.125 | < 0.125 | < 0.125 | 2 (≈ 2.8 µM) | > 128 | 32 (≈ 44.8 µM) | 2 (≈ 2.8 µM) | 2 (≈ 2.8 µM) | 64 (≈ 89.5 µM) | > 20 | > 20 |
